The test system of assay [1] is human neutrophils. Description: Neutrophil elastase (NE) release (degranulation). It is filed as cell-based. As for the experimental part: Human neutrophils (6×10^5 cells/mL) were incubated with DMSO or bletinib after treatment with 1 mM CaCl2 and 100 μM NE substrate (Methoxysuccinyl-Ala-Ala-Pro-Val-p-nitroanilide) at 37° C. for 5 min. Cells were stimulated with fMLF/0.5 μg mL^−1 CB, leukotriene B4 (LTB4)/2 μg mL^−1 CB, NaF/2 μg mL^−1 CB, or MMK-1/0.5 μg mL-1 CB for 10 min before determination of NE release by measuring the change of absorbance at 405 nm in a spectrophotometer.

The subject of assay [2] is human neutrophils. Description: Neutrophil migration, microchemotaxis chamber. It is filed as cell-based. As for the experimental part:
A microchemotaxis chamber with 3-μm filters (Millipore) was used to evaluate chemotactic migration of neutrophils. Neutrophils (5×10^6 cells/mL) treated with bletinib or DMSO for 5 min were placed in the top chamber, and 0.1 μM fMLF was added into the bottom chamber. The number of neutrophils that migrated from the top to the bottom chamber after incubation at 5% CO2 for 1 h was counted on a MoxiZ automatic cell counter (ORFLO).

Assay [3] relates to CD18 (integrin β2). Briefly: Surface CD18 expression, flow cytometry. Particulars: 1-10 μM bletinib; 0.1 μM fMLF/CB. It is filed as cell-based, human. As for the experimental part:
Neutrophils (5×10^5 cells/mL) were incubated with bletinib or DMSO for 5 min and then activated through incubation with 0.1 μM fMLF/1 μg/mL CB for 5 min. After centrifugation at 200×g for 8 min at 4° C., the cells were resuspended in 5% bovine serum albumin with FITC-conjugated antibodies against CD18 or CD11b on ice in the dark for 15 min. The fluorescent intensity was then analysed through fluorescence-activated cell sorting.
A general note: Flow cytometry measures light scatter and fluorescence of single cells or particles in a stream.

Each structure is given as a SMILES string.

Experimental findings from patent US20220339122A1, “METHODS FOR THE TREATMENT OF DISEASES ASSOCIATED WITH DYSREGULATED ACTIVATION AND RECRUITMENT OF NEUTROPHILS” (Chang Gung University, priority 2021, published 2022) are described below.

As for `COc1cc(O)cc(CCc2c(Cc3ccc(O)cc3)ccc(O)c2Cc2ccc(O)cc2)c1` [bletinib, 3,3′-dihydroxy-2′,6′-bis(p-hydroxybenzyl)-5-methoxybibenzyl], the 50% inhibitory concentration (IC50) in assay [1] (Homo sapiens, Neutrophil, fMLF/CB stimulation, read-out: release of NE in fMLF-stimulated human neutrophils, IC50) is 0.53 ± 0.07 µM. Moreover, in assay [1] (LTB4/CB, 0.1-10 μM bletinib, concentration-dependent), the “NE release from neutrophils stimulated with LTB4” value is “downregulated”. In addition, in assay [1] (MMK-1/CB, 0.1-10 μM bletinib, concentration-dependent), the “NE release from neutrophils stimulated with MMK-1” value is on record as “downregulated”. Also, in assay [1] (NaF/CB, 0.1-10 μM bletinib, concentration-dependent), the “NE release from neutrophils stimulated with NaF” value is given as “downregulated”. Moreover, in assay [2] (1-10 μM bletinib, 0.1 μM fMLF), the “fMLF-induced transwell migration of neutrophils” value is recorded as “significantly reduced”. Also, the IL-8-induced neutrophil migration result in assay [2] (IL-8, data not shown) is recorded as “inhibited”. In assay [3], the “expression of CD18 in fMLF-stimulated human neutrophils” value is “significantly attenuated”.

Broadly, the IC50 is the concentration that gives 50% inhibition.
